In the test the target is T1, MT3 sites (Mesocricetus auratus, UniProt A0ABM2YAB8).
T1 construct: carried out on hamster brain membranes using 2-[^125I] iodomelatonin as radioligand; from tissue; host or cells: hamster brain membranes
T1 sequence (A0ABM2YAB8 1-231): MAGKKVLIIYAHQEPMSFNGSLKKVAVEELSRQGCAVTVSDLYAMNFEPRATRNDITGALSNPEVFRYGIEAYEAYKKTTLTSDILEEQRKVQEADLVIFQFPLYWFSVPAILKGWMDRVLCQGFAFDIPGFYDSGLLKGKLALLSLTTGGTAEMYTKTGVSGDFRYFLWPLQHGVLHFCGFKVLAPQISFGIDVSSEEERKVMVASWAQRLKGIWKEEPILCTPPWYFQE
In words: Study of binding to melatonin MT3 binding sites. Particulars: hamster brain membranes, 2-[125I] iodomelatonin radioligand, 30 minutes, 4° C. On the procedure: Binding to MT3 sites is characterised by remarkably rapid association and dissociation kinetics and by tissue localisation (brain).
The experiments of binding to MT3 sites are carried out on hamster brain membranes using 2-[^125I] iodomelatonin as radioligand in accordance with the protocol described by P. Paul et al. (J. Pharmacol. Exp. Ther. 1999 290, 334). The membranes are incubated for 30 minutes with 2-[^125I] iodomelatonin at a temperature of 4° C. and at different concentrations of the compounds to be tested. Following incubation, the membranes are rapidly filtered and then washed with cold buffer using a filtration system. The radioactivity retained is measured using a scintillation counter.

For orientation: IC50 means the concentration that inhibits the measured activity by half.

Take `COc1ccc2[nH]cc(CCNC(C)=O)c2c1` [melatonin, N-acetyl-5-methoxytryptamine]: the IC50 came to 45 nM.

These data come from patent US6465660B1, “Isoindoloindolone compounds” (Les Laboratoires Servier, priority 2001, dated 2002).
